Molecules are shown by their SMILES. Entries after “also recorded” stand apart in the source; their conditions may differ.

Test [1] relates to RARs and RXRs. Put plainly: Binding to RARs and RXRs (summary over all six receptors). Conditions: RARα,β,γ and RXRα,β,γ.
In test [2] the test system is RARs and RXRs. Conditions: Heyman et al., Cell, 68:397 (1992); cited from earlier work.
For another test, the system named is RXRs. The experiment in a line: Binding to RXRs (summary).
The test system of test [3] is RARs and RXRs. Put plainly: Binding to and modulating gene expression via RARs and RXRs. Conditions: labeled retinoid.

With `CC1=C(/C=C/C(C)=C\C=C\C(C)=C\C(=O)O)C(C)(C)CCC1` [9-cis RA, (2E,4E,6Z,8E)-3.7-Dimethyl-9-(2,6,6-trimethylcyclohexen-1-yl)nona-2.4.6.8-tetraenoic acid], the “binding to / activity on RARs and RXRs, in words” value (shortened to “binding to / activity”) with RARs and RXRs [1] was “active on all six known retinoid receptors”; with RARs and RXRs [1] (listed as 9-cis retinoic acid), “effectively binds to all six receptors; also recorded: binds to the RARs and RXRs with high affinity in a saturable and specific manner”. The “binding to and modulating gene expression via the RARs and RXRs, in words” value with RARs and RXRs [2] is “capable of binding to and modulating gene expression via the RARs and RXRs”.

As for `CC1=C(/C=C/C(C)=C/C=C/C(C)=C/C(=O)O)C(C)(C)CCC1` [ATRA, all-trans retinoic acid], in the test on RXRs, the “binding to RXRs, in words” value is reported as “does not bind to RXRs”. The “binding to / activity” value in the test with RARs and RXRs [1] is listed as “only binds to the RARs”; in the test with RARs and RXRs [1] (listed as all-trans retinoic acid (ATRA)) it was “only active on RARα,β,γ”.

Turning to `[3H]C(/C=C(C)\C=C\C1=C(C)CCCC1(C)C)=C\C(C)=C\C(=O)O` [monotritium-labeled 9-cis RA, (2E,4E,6Z,8E)-5-[^3 H]-3,7-Dimethyl-9-(2,6,6-trimethylcyclohexen-1-yl)nona-2,4,6,8-tetraenoic acid], the “binding to / activity” value in the test on RARs and RXRs [1] is “binds to all the known RARs and RXRs with approximately equal nanomolar affinities”. The “binding with, and modulating gene expression from, both RARs and RXRs, in words” value in the test with RARs and RXRs [3] is “capable of binding with, and modulating gene expression from, both RARs and RXRs”.

The values above are taken from patent US5508456A, “9-cis tritium-labeled retinoids and intermediates, methods for their synthesis and methods for their use in discovering retinoid X receptor ligands” (Ligand Pharmaceuticals Incorporated, priority 1994, dated 1996).
